Patent US20020052377A1, “Method for treating angina” (priority 2000, published 2002)
Values after ≈ are worked out from the molar mass of the structure shown.

Assays:
[1] = Solubility of ranolazine in aqueous solutions by pH; format: physicochemical
[2] = test system: patients with chronic stable angina pectoris; assay: Safety, tolerability and hemodynamics, IR regimens (Example 3); format: in vivo, human
Experimental: After each 1 week period, patients returned to the exercise laboratory in the morning, at least 1 hour after a light breakfast, for an ETT. This was designated the trough ETT; the trough ETTs were performed at the same time of day for each patient. After completing the trough ETT, the patient received the next scheduled blinded medication dose from the blister pack used that week. Another ETT was performed 1 hour after the administered dose. This was designated the peak ETT. Blood samples were obtained at trough (approximately 8 hours after dosing) and at peak (1 hour after dosing). Other standard laboratory tests were monitored regularly throughout the study. Blood pressure (by cuff) and heart rate were monitored before all ETTs, during the ETT, during the last minute of each stage of the test, at onset angina, at the point of maximum exercise, and during recovery (every minute for 4 minutes, then every 5 minutes until values returned to baseline). Heart rates also was monitored continuously and standard 12-lead ECG recordings were done immediately before exercise with the patient standing on the treadmill, at the end of each stage of exercise, at the maximally tolerated exercise load, and at the termination of exercise.

[3] = Solution pH 7.59 (unbuffered water)

With `COc1ccccc1OCC(O)CN1CCN(CC(=O)Nc2c(C)cccc2C)CC1` (racemic) [Ranolazine, (±)-N-(2,6-dimethylphenyl)-4-[2-hydroxy-3-(2-methoxyphenoxy)propyl]-1-piperazine-acetamide] the “USP Solubility Class” value ([1]; Solution pH 4.81) was “Freely soluble”, the “USP Solubility Class” value ([1]; Solution pH 4.89) was “Soluble” and the “USP Solubility Class” value ([1]; Solution pH 4.90) was “Soluble”. The “USP Solubility Class” value ([1]; Solution pH 5.04) was “Soluble”, the “USP Solubility Class” value ([1]; Solution pH 5.35) was “Sparingly soluble” and the “USP Solubility Class” value ([1]; Solution pH 5.82) was “Slightly soluble”. The “USP Solubility Class” value ([1]; Solution pH 6.46) was “Slightly soluble”, the “USP Solubility Class” value ([1]; Solution pH 6.73) was “Very slightly soluble” and the “USP Solubility Class” value ([1]; Solution pH 7.08) was “Very slightly soluble”. For the same molecule, the “USP Solubility Class” value [1, 3] was “Very slightly soluble”, the solubility [1, 3] was 240 µg/mL (≈ 0.561 mM) and the “USP Solubility Class” value ([1]; Solution pH 7.73) was “Very slightly soluble”. The “USP Solubility Class” value ([1]; Solution pH 12.66) was “Very slightly soluble”, the solubility ([1]; aqueous solution, aqueous buffer, Solution pH 4.81) was 161000 µg/mL (≈ 377 mM) and the solubility ([1]; aqueous solution, aqueous buffer, Solution pH 4.89) was 73800 µg/mL (≈ 173 mM). For the same molecule, the solubility ([1]; aqueous solution, aqueous buffer, Solution pH 5.04) was 49400 µg/mL (≈ 116 mM), the solubility ([1]; aqueous solution, aqueous buffer, Solution pH 5.35) was 16700 µg/mL (≈ 39.1 mM) and the solubility ([1]; aqueous solution, aqueous buffer, Solution pH 5.82) was 5480 µg/mL (≈ 12.8 mM). The solubility ([1]; aqueous solution, aqueous buffer, Solution pH 6.46) was 1630 µg/mL (≈ 3.81 mM), the solubility ([1]; aqueous solution, aqueous buffer, Solution pH 6.73) was 830 µg/mL (≈ 1.94 mM) and the solubility ([1]; aqueous solution, aqueous buffer, Solution pH 7.08) was 390 µg/mL (≈ 0.912 mM). For the same molecule, the solubility ([1]; aqueous solution, aqueous buffer, Solution pH 7.73) was 170 µg/mL (≈ 0.398 mM), the solubility ([1]; aqueous solution, aqueous buffer, Solution pH 12.66) was 180 µg/mL (≈ 0.421 mM) and the solubility ([1]; aqueous solution, pH 4.9, aqueous buffer, Solution pH 4.90) was 76400 µg/mL (≈ 179 mM). For the same molecule, the “blood glucose concentrations, lipid values or liver function tests” value ([2]; IR dosing regimens) was “no clinically significant changes”, the “ECG intervals or complex morphology” value ([2]; IR dosing regimens vs placebo) was “no drug-related changes” and the tolerability ([2]; over the plasma concentrations achieved in the study) was “well tolerated”.
